Reference: ChEMBL document CHEMBL5046286, “Discovery of MAP855, an Efficacious and Selective MEK1/2 Inhibitor with an ATP-Competitive Mode of Action” (J Med Chem, 2022)
Values after ≈ are worked out from the molar mass of the structure shown. Active and inactive are the calls of the source. The rule behind the calls is not given here.

Legend:
[1] = Octanol-water partition coefficient, logP of the compound by LC-MS analysis; assay type: physicochemical
Cytochrome P450 3A4 = Cytochrome P450 3A4 (Homo sapiens, UniProt P08684); assay: Inhibition of CYP3A4 (unknown origin); assay type: ADME
Sequence of Cytochrome P450 3A4 (P08684 whole entry): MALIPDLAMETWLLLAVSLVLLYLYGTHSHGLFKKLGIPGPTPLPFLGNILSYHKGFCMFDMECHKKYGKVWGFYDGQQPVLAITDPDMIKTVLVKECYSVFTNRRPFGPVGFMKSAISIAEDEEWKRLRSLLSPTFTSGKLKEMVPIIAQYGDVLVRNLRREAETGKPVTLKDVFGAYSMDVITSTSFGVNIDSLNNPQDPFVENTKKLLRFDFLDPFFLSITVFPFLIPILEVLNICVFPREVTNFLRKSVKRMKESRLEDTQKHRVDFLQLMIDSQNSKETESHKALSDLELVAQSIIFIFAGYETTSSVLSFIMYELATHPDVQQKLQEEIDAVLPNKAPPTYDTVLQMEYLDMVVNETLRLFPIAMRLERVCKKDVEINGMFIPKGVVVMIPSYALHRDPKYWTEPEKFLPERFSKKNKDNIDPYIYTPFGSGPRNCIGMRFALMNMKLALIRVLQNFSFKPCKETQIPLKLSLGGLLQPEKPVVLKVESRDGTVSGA

[2] = Permeability in PBS at pH 6.8 incubated for 5 hrs by PAMPA method; assay type: ADME; conditions: pH 6.8, 5 h
[3] = Solubility of compound in water at pH 6.8 by shake flask method based HPLC/UV analysis; assay type: physicochemical
[4] = Dissociation constant, pKa of compound; assay type: physicochemical
[5] = Inhibition of ERK phosphorylation in human A-375 cells incubated for 3 hrs by DELFIA assay; assay type: cell-based; conditions: A-375, 3 h
[6] = target: High affinity nerve growth factor receptor (Homo sapiens, UniProt P04629); assay: Inhibition of wild-type human partial length TRKA (G475 to G790 residues) expressed in mammalian expression system by Kinomescan method
Sequence of High affinity nerve growth factor receptor (P04629 whole entry, the tested form may be a part): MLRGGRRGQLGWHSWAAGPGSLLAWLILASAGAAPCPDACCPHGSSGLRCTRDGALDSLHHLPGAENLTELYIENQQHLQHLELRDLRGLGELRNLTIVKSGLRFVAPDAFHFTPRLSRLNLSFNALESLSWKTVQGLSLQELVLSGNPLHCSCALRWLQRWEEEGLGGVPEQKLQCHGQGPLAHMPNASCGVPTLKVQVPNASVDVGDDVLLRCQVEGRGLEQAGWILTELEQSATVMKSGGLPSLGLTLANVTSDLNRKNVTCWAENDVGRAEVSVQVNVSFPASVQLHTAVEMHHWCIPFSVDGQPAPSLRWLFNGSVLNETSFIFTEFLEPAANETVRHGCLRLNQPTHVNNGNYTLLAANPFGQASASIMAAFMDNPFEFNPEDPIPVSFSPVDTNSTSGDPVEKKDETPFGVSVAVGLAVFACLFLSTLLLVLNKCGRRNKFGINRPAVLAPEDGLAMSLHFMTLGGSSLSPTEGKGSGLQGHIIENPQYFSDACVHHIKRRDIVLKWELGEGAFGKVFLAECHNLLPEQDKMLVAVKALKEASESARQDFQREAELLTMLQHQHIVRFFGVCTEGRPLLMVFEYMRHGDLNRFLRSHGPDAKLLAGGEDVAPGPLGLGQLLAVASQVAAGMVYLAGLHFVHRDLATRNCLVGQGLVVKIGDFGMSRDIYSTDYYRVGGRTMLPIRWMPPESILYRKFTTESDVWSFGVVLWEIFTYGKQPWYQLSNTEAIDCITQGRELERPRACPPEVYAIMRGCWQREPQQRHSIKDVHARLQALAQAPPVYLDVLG

[7] = Oral bioavailability in Wistar rat at 10 mg/kg measured up to 24 hrs by LC-MS/MS analysis; assay type: ADME, organism-based; conditions: in vivo; for bioavailability: Wistar
Mus musculus [8] = assay: In vivo inhibition of ERK phosphorylation in human A-375 cells xenografted CD1 mouse at 30 mg/kg bid via oral gavage measured after 8 hrs by ELISA method; assay type: functional, organism-based
Mus musculus [9] = assay: In vivo inhibition of MEK phosphorylation in human A-375 cells xenografted CD1 mouse at 30 mg/kg bid via oral gavage measured after 8 hrs by ELISA method; assay type: functional, organism-based
Mus musculus [10] = assay: In vivo inhibition of DUSP6 in human A-375 cells xenografted CD1 mouse at 30 mg/kg bid via oral gavage measured after 8 hrs by RT-PCR method; assay type: functional, organism-based
Mus musculus [11] = assay: In vivo inhibition of SPRY4 in human A-375 cells xenografted CD1 mouse at 30 mg/kg bid via oral gavage measured after 8 hrs by RT-PCR method; assay type: functional, organism-based
[12] = Toxicity in CD1 mouse xenografted with human A-375 cells assessed as body weight loss at 30 mg/kg bid via oral gavage; assay type: organism-based; conditions: in vivo
[13] = Volume of distribution at steady state in CD1 mouse at 3 mg/kg, iv measured up to 24 hrs by LC-MS/MS analysis; assay type: ADME, organism-based; conditions: in vivo, read-out: Vdss
[14] = AUC in CD1 mouse at 10 mg/kg, po measured up to 24 hrs by LC-MS/MS analysis; assay type: ADME, organism-based; set-up: route oral, dose 10 mg/kg, time <=24; conditions: in vivo
[15] = Oral bioavailability in CD1 mouse at 10 mg/kg measured up to 24 hrs by LC-MS/MS analysis; assay type: ADME, organism-based; conditions: in vivo
[16] = Volume of distribution at steady state in Wistar rat at 3 mg/kg, iv measured up to 24 hrs by LC-MS/MS analysis; assay type: ADME, organism-based; conditions: in vivo, read-out: Vdss
[17] = AUC in Wistar rat at 10 mg/kg, po measured up to 24 hrs by LC-MS/MS analysis; assay type: ADME, organism-based; set-up: route oral, dose 10 mg/kg, time <=24; conditions: in vivo
[18] = Volume of distribution at steady state in Beagle dog at 3 mg/kg, iv measured up to 24 hrs by LC-MS/MS analysis; assay type: ADME, organism-based, Canis lupus familiaris; conditions: in vivo, read-out: Vdss
[19] = AUC in Beagle dog at 10 mg/kg, po measured up to 24 hrs by LC-MS/MS analysis; assay type: ADME, organism-based, Canis lupus familiaris; set-up: route oral, dose 10 mg/kg, time <=24; conditions: in vivo
[20] = Oral bioavailability in Beagle dog at 10 mg/kg measured up to 24 hrs by LC-MS/MS analysis; assay type: ADME, organism-based, Canis lupus familiaris; conditions: in vivo
[21] = target: Mitogen-activated protein kinase 1 (Homo sapiens) (UniProt P28482); assay: Inhibition of full length human ERK2 using LCB-FFKNIVTPRTPPP as substrate preincubated for 45 mins followed by substrate addition and measured after 90 mins; conditions: time 135.0 min
Sequence of Mitogen-activated protein kinase 1 (Homo sapiens) (P28482 whole entry): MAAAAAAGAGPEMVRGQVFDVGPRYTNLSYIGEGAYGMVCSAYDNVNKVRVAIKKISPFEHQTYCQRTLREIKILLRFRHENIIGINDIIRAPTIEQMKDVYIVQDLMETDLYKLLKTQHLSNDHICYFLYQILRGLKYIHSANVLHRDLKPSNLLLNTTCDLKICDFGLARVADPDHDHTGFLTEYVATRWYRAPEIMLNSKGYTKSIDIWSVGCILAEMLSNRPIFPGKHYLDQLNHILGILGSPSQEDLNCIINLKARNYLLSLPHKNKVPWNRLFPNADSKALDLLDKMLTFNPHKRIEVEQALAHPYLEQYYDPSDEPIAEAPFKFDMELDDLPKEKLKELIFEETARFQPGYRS

[22] = tested on: Serine/threonine-protein kinase B-raf (Homo sapiens), P15056 [V600E]; assay: Inhibition of full length human BRAF V599E mutant using LCB-FFKNIVTPRTPPP as substrate preincubated for 45 mins followed by substrate addition and measured after 90 mins; conditions: time 135.0 min
Sequence of Serine/threonine-protein kinase B-raf (Homo sapiens), P15056 [V600E] (P15056 whole entry V600E): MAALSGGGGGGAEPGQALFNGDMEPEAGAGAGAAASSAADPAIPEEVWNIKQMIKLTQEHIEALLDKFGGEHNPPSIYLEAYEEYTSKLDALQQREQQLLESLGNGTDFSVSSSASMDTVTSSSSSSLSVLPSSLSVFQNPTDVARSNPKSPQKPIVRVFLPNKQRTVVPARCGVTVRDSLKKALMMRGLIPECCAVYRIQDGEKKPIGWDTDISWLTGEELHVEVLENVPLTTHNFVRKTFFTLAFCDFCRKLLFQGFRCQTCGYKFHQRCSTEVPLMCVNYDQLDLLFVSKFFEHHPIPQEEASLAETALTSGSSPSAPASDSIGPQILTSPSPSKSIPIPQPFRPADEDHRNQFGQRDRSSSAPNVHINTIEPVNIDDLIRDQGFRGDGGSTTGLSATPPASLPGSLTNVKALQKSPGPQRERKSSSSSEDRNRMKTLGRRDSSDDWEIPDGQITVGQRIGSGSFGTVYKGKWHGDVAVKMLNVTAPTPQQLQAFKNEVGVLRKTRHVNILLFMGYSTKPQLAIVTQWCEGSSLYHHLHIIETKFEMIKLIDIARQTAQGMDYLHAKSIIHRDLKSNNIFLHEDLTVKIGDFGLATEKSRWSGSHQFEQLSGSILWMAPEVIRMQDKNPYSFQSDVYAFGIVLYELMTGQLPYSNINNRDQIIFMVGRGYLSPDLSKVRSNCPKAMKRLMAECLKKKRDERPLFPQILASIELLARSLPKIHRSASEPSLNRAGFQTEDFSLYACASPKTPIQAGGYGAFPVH

[23] = target: T1, Dual specificity mitogen-activated protein kinase kinase 1 (Homo sapiens, UniProt Q02750); conditions: time 120.0 min
T1 sequence (Q02750 whole entry): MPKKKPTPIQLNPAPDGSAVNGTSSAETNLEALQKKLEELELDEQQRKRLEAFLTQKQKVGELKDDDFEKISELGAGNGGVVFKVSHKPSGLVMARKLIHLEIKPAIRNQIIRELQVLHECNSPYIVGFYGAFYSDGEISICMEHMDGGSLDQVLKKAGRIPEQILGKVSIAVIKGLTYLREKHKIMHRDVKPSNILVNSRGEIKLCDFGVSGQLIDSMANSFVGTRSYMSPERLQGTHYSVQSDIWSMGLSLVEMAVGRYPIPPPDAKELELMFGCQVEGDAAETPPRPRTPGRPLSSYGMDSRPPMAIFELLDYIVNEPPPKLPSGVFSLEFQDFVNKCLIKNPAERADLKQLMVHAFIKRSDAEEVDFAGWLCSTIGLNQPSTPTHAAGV

[24] = Solubility of compound in FaSSIF at pH 6.8 by shake flask method based HPLC/UV analysis; assay type: physicochemical
[25] = Clearance in Wistar rat at 3 mg/kg, iv measured up to 24 hrs by LC-MS/MS analysis; assay type: ADME, organism-based; conditions: in vivo
[26] = target: T1, Dual specificity mitogen-activated protein kinase kinase 1; assay: Inhibition of full-length human MEK1 by TR-FRET assay
[27] = Clearence in CD-1 mouse at 3 mg/kg, iv; assay type: ADME, organism-based; conditions: in vivo
[28] = Protein binding in human plasma assessed as free fraction; assay type: ADME, cell-free
A-375 = assay: Antitumor activity against human A-375 cells xenografted in CD1 mouse assessed as tumor growth inhibition at 30 mg/kg bid via oral gavage; assay type: functional; conditions: A-375, po, read-out: TGI

SMILES | logP [1] | IC50 (Cytochrome P450 3A4) | log(permeability) [2] | solubility thermodynamic [3] | solubility thermodynamic [24] | also measured
N#CC[C@]1(N)CC[C@@H](n2cnc3cnc4cc(F)c(-c5ccc(Oc6ncccn6)cc5Cl)cc4c32)CC1 | 5.7 | 5700 nM |  |  |  | 
Fc1cc2ncc3ncn(C4CCNCC4)c3c2cc1-c1ccc(Oc2ccccn2)cc1Cl | 4.8 |  | -4.5 | 47 µM (≈ 22.3 µg/mL) |  | pKa [4]: 8.4
Cc1nc2cnc3cc(F)c(-c4ccc(Oc5ncccn5)cc4Cl)cc3c2n1[C@H]1CCN(C(=O)CO)C[C@@H]1F | 1.6 | 7700 nM |  |  |  | EC50 [5]: 5000 nM; IC50 [6]: 25 nM; F ([7]; 10 mg/kg, 24 h): 65%; Activity (Mus musculus [8]): Active; Activity (Mus musculus [9]): Active; Activity (Mus musculus [10]): Active; Activity (Mus musculus [11]): Active; Activity [12]: Non-Toxic; Vd [13]: 2.6 L/kg; AUC [14]: 0.4 µM·h; F [15]: 44%; Vd [16]: 2 L/kg; AUC [17]: 0.6 µM·h; Vd [18]: 1.8 L/kg; AUC [19]: 1.4 µM·h; F [20]: 100%; inhibition [21]: inactive; inhibition [22]: inactive; T1/2 [23]: 1.62 h
COc1cc(Oc2ccccn2)ccc1-c1cc2c(cc1F)ncc1nc(C)n(C3CCN(CC#N)CC3)c12 | 4.6 |  | -3.9 | < 4 µM | 22 µM (≈ 11.5 µg/mL) | 
COc1cc(Oc2ncccn2)ccc1-c1cc2c(cc1F)ncc1nc(C(C)O)n(C3CCN(CC#N)CC3)c12 (stereo not drawn) | 3.2 |  | -6.9 | 31 µM (≈ 17.2 µg/mL) | 42 µM (≈ 23.3 µg/mL) | 
N#CCN1CCC(n2cnc3cnc4cc(F)c(-c5ccc(Oc6ncccn6)cc5Cl)cc4c32)CC1 | 3 |  | -4.5 |  |  | 
Cc1nc2cnc3cc(F)c(-c4ccc(Oc5ncccn5)cc4Cl)cc3c2n1C1CCN(CC#N)CC1 | 3.3 | 1600 nM | -4.7 | 11 µM (≈ 5.81 µg/mL) | 106 µM (≈ 56 µg/mL) | IC50 [5]: 60 nM; clearance [25]: 16 mL/min/kg; bioavailability [7]: 0%
CC(O)c1nc2cnc3cc(F)c(-c4ccc(Oc5ccccn5)cc4Cl)cc3c2n1C1CCN(CC#N)CC1 (stereo not drawn) |  |  | -4.7 | < 4 µM | 22 µM (≈ 12.3 µg/mL) | 
N#CCc1ccc(-n2cnc3cnc4cc(F)c(-c5ccc6[nH]ccc6c5)cc4c32)cc1 |  |  |  |  |  | IC50 [26]: 2600 nM; EC50 [5]: 5800 nM
CC1(n2cnc3cnc4cc(F)c(-c5ccc(Oc6ncccn6)cc5Cl)cc4c32)CCC(CC#N)CC1 (stereo not drawn) | 4.6 | < 500 nM |  |  |  | clearance [27]: 6 mL/min/kg
COc1cc(Oc2ccccn2)ccc1-c1cc2c(cc1F)ncc1nc(C(C)O)n(C3CCN(CC#N)CC3)c12 (stereo not drawn) | 4.4 |  | -4.6 | < 4 µM | 9 µM (≈ 4.97 µg/mL) | 
Cc1nc2cnc3cc(F)c(-c4ccc(Oc5ncccn5)cc4Cl)cc3c2n1[C@H]1CC[C@@](N)(CC#N)CC1 | 1.2 | 1200 nM |  |  |  | 
OCCN1CCC(n2cnc3cnc4cc(F)c(-c5ccc(Oc6ccccn6)cc5Cl)cc4c32)CC1 | 4.6 |  | -4.4 | 67 µM (≈ 34.7 µg/mL) |  | pKa [4]: 6.9
COc1cc(Oc2ccccn2)ccc1-c1cc2c(cc1F)ncc1ncn(C3CCN(CC#N)CC3)c12 | 5.3 |  | -4.2 |  |  | 
N#CCc1ccc(-n2cnc3cnc4cc(F)c(-c5ccc(Oc6ccccn6)cc5Cl)cc4c32)cc1 |  | < 500 nM |  |  |  | EC50 [5]: 3000 nM; clearance [25]: 8 mL/min/kg; bioavailability [7]: 5%
N#CCN1CCN(n2cnc3cnc4cc(F)c(-c5ccc(Oc6ncccn6)cc5Cl)cc4c32)CC1 | 3.2 |  |  |  |  | IC50 [5]: 120 nM

SMILES | logP [1] | IC50 (Cytochrome P450 3A4) | log(permeability) [2] | solubility thermodynamic [3] | solubility thermodynamic [24] | also measured
O=C(CO)N1CC[C@H](n2cnc3cnc4cc(F)c(-c5ccc(Oc6ncccn6)cc5Cl)cc4c32)[C@@H](F)C1 | 2.3 | > 20000 nM |  |  |  | 
Cc1ccnc(Oc2ccc(-c3cc4c(cc3F)ncc3nc(C)n([C@H]5CCN(C(=O)CO)C[C@@H]5F)c34)c(Cl)c2)n1 | 2.6 | 2000 nM |  |  |  | EC50 [5]: 7000 nM
CC1(n2cnc3cnc4cc(F)c(-c5ccc(Oc6ncccn6)cc5Cl)cc4c32)CCN(CC#N)CC1 | 4.2 | 1500 nM |  |  |  | IC50 [5]: 80 nM; clearance [27]: 35 mL/min/kg
COc1cc(Oc2ccccn2)ccc1-c1cc2c(cc1F)ncc1nc(CO)n(C3CCN(CC#N)CC3)c12 | 4.4 |  | -5 | < 4 µM | 7 µM (≈ 3.77 µg/mL) | 
COCC(=O)N1CC[C@H](n2c(C)nc3cnc4cc(F)c(-c5ccc(Oc6ncccn6)cc5Cl)cc4c32)[C@@H](F)C1 | 3.2 | 5000 nM |  |  |  | 
CC(O)c1nc2cnc3cc(F)c(-c4ccc(Oc5ncccn5)cc4Cl)cc3c2n1C1CCN(CC#N)CC1 (stereo not drawn) |  |  | -4.7 | < 4 µM | 22 µM (≈ 12.3 µg/mL) | 
Cc1cc(Oc2ncccn2)ccc1-c1cc2c(cc1F)ncc1nc(C)n([C@H]3CCN(C(=O)CO)C[C@@H]3F)c12 | 2 | > 20000 nM |  |  |  | EC50 [5]: 19000 nM
Cc1nc2cnc3cc(F)c(-c4ccc(Oc5ncccn5)cc4Cl)cc3c2n1C1CCN(C(=O)CO)CC1 | 2 | 11000 nM |  |  |  | EC50 [5]: 50000 nM; fraction unbound [28]: 0.05; inhibition in vivo at 30 mg/kg (A-375): 41%; clearance [25]: 34 mL/min/kg; bioavailability [7]: 37%
N#CCN1CCC(n2c(CO)nc3cnc4cc(F)c(-c5ccc(Oc6ccccn6)cc5Cl)cc4c32)CC1 | 4.9 |  | -4.5 | < 4 µM | < 4 µM | 
CC(=O)N1CC[C@H](n2c(C)nc3cnc4cc(F)c(-c5ccc(Oc6ncccn6)cc5Cl)cc4c32)[C@@H](F)C1 |  |  |  |  |  | EC50 [5]: 64000 nM
COc1cc(Oc2ncccn2)ccc1-c1cc2c(cc1F)ncc1nc(C)n(C3CCN(CC#N)CC3)c12 | 2.3 |  | -4.5 | 33 µM (≈ 17.3 µg/mL) | 221 µM (≈ 116 µg/mL) | 
N#CCN1CCC(n2c(CO)nc3cnc4cc(F)c(-c5ccc(Oc6ncccn6)cc5Cl)cc4c32)CC1 | 3.5 |  | -5.3 | 12 µM (≈ 6.53 µg/mL) | 6 µM (≈ 3.26 µg/mL) | 
Cc1nc2cnc3cc(F)c(-c4ccc(Oc5ccccn5)cc4Cl)cc3c2n1C1CCN(CC#N)CC1 | 5.1 |  | -4.1 | < 4 µM | 175 µM (≈ 92.2 µg/mL) | 
Cc1nc2cnc3cc(F)c(-c4ccc(Oc5ncccn5)cc4Cl)cc3c2n1[C@H]1CC[C@](N)(CC#N)CC1 |  | 12100 nM |  |  |  | 
CC(=O)Nc1cccc(-n2c(=O)n(C3CC3)c(=O)c3c(Nc4ccc(I)cc4F)n(C)c(=O)c(C)c32)c1 |  |  |  |  |  | T1/2 [23]: 0.417 h
N#CCN1CCC(n2cnc3cnc4cc(F)c(-c5ccc(Oc6ccccn6)cc5Cl)cc4c32)CC1 | 5.3 |  | -4.2 |  |  | IC50 [26]: 70 nM; EC50 [5]: 400 nM; pKa [4]: 4.1
